Experimental data: US20250122192A1, “5-PYRIMIDINECARBOXAMIDE DERIVATIVES AND METHODS OF USING THE SAME” (Rgenta Therapeutics, Inc., priority 2021, published 2025)
Structures can show the parent of a compound that is named as a salt.

Test system: PMS1
Experiment: Mini-gene reporter assay-PMS1
Format: cell-based
Conditions: Homo sapiens, HEK293, PMS1 mini-gene firefly luciferase reporter transiently transfected into HEK293 cells; read-out: PMS1 IC50
Source text: Biological Activity of the Compounds of the Present Disclosure Mini-gene reporter assay-PMS1
Mini-gene reporter constructs for each target site can be constructed by first PCR amplifying the region-of-interest including the sequence of the alternatively skipped, sequences of the immediate upstream and downstream introns, and sequences of the immediate upstream and downstream exons. Then the 3′end of the amplified sequence can be ligated to a firefly luciferase reporter gene and cloned into the pcDNA3.1 vector backbone. The final reporter construct can be transiently transfected into HEK293 cells using Lipofectamine 3000 transfection reagents. Compounds that can induce the inclusion of the skipped exon in the reporter construct would increase the reporter firefly luciferase activity.
Test compounds may be diluted in duplicates and dispensed into an assay plate. Transient mini-gene reporter cell line stock is resuspended and dispensed into the assay plate. Assay plates are then centrifuged and incubated. A luciferase reagent (e.g. ONE-Glo firefly luciferase reagent from Promega®) may be added to the assay plate and the luminescence (RLU) signals recorded. PMS1 EC50 values may be determined by curve fitting in Levenberg-Marquardt algorithm.

Q: For `CCOc1nc(N(C)CC2CCCN2)ncc1C(=O)Nc1cc(F)c2nc(C)cn2c1` (stereo not drawn) [Compound 200], which IC50 is on record?
A: 1000 to 3000 nM

Q: Which IC50 does the source give for `CCOc1nc(N(C)C2CCCCNC2)ncc1C(=O)Nc1cc(F)c2nc(C)cn2c1` (stereo not drawn) [Compound 138] here?
A: 1000 to 3000 nM

Q: How did the IC50 turn out when `CCOc1nc(N2CCNC3(CC3)C2)ncc1C(=O)Nc1cc(F)c2nn(C)cc2c1` [Compound 299, 4-ethoxy-N-(7-fluoro-2-methyl-2H-indazol-5-yl)-2-(4,7-diazaspiro[2.5]octan-7-yl)pyrimidine-5-carboxamide formate] was run?
A: > 3000 nM

Q: How did the IC50 turn out when `CCOc1nc(N2CCNCC2C)ncc1C(=O)Nc1cc(F)c2nc(C)cn2c1` (stereo not drawn) [Compound 240] was run?
A: < 500 nM

Q: With `CCOc1nc(N(C)C2CCNCC2)ncc1C(=O)Nc1cn2cc(C)nc2c(C)n1` [Compound 57] as the compound, how does the IC50 read?
A: < 500 nM

Q: Which IC50 does the source give for `CCOc1nc(N2CC3C4CCC(NC4)C3C2)ncc1C(=O)Nc1cc(F)c2nc(C)cn2c1` (stereo not drawn) [Compound 125] here?
A: 500 to 1000 nM

Q: Which IC50 does the source give for `CCOc1nc(N2CCC(NC)C2)ncc1C(=O)Nc1ccc2nn(C)cc2c1` (stereo not drawn) [Compound 270, 4-ethoxy-N-(2-methyl-2H-indazol-5-yl)-2-(3-(methylamino)pyrrolidin-1-yl)pyrimidine-5-carboxamide hydrochloride] here?
A: < 500 nM

Q: `CCOc1nc(N2CC[C@@H]3CNC[C@@H]3C2)ncc1C(=O)Nc1cn2cc(C)nc2c(C)n1` (racemic) [Compound 29] was tested. Which IC50 did it give?
A: > 3000 nM

Q: `CCOc1nc(N2CCNCC2)ncc1C(=O)Nc1cn2cc(C)nc2cn1` [Compound 9, 4-ethoxy-N-{2-methylimidazo[1,2-a]pyrazin-6-yl}-2-(piperazin-1-yl)pyrimidine-5-carboxamide] was tested. Which IC50 did it give?
A: 1000 to 3000 nM

Q: `CCOc1nc(N2CC[C@@H]3NCC[C@@H]3C2)ncc1C(=O)Nc1cn2cc(C)nc2c(C)n1` (racemic) [Compound 90] was tested. Which IC50 did it give?
A: 1000 to 3000 nM

Q: How did the IC50 turn out when `CCOc1nc(N2CC3CNCCC32)ncc1C(=O)Nc1cn2cc(C)nc2c(C)n1` (stereo not drawn) [Compound 77] was run?
A: < 500 nM

Q: `CCOc1nc(N2CCC(C3CCCN3)C2)ncc1C(=O)Nc1cc(F)c2nc(C)cn2c1` (stereo not drawn) [Compound 120] was tested. Which IC50 did it give?
A: < 500 nM

Q: For `CCOc1nc(N2C[C@H]3CNC[C@H]3C2)ncc1C(=O)Nc1cn2cc(C)nc2c(C)n1` [Compound 84], which IC50 is on record?
A: < 500 nM

Q: Which IC50 does the source give for `CCOc1nc(N2CC3(CCNCC3)C2)ncc1C(=O)Nc1cn2cc(C)nc2c(C)n1` [Compound 17] here?
A: < 500 nM

Q: With `CCOc1nc(N2CC[C@@H](NC)C2)ncc1C(=O)Nc1cc(OC)c2nn(C)cc2c1` [Compound 295, (R)-4-ethoxy-N-(7-methoxy-2-methyl-2H-indazol-5-yl)-2-(3-(methylamino)pyrrolidin-1-yl)pyrimidine-5-carboxamide 4-methylbenzenesulfonate] as the compound, how does the IC50 read?
A: 500 to 1000 nM

Q: With `CCOc1nc(N2CCN[C@H](C)C2)ncc1C(=O)Nc1cc(F)c2nn(C)cc2c1` [Compound 264, (R)-4-ethoxy-N-(7-fluoro-2-methyl-2H-indazol-5-yl)-2-(3-methylpiperazin-1-yl)pyrimidine-5-carboxamide formic acid] as the compound, how does the IC50 read?
A: 1000 to 3000 nM

Q: Which IC50 does the source give for `CCOc1nc(N2CCN[C@@H](C(C)C)C2)ncc1C(=O)Nc1cc(F)c2nc(C)cn2c1` [Compound 226] here?
A: < 500 nM

Same assay, conditions: Homo sapiens, HEK293, read-out: PMS1% Effect at 5 μM

Q: Which activation at 5 µM does the source give for `CCOc1nc(N2CCNCC2)ncc1C(=O)Nc1cn2cc(C)nc2cc1F` [Compound 308, 4-ethoxy-N-(7-fluoro-2-methylimidazo[1,2-a]pyridin-6-yl)-2-(piperazin-1-yl)pyrimidine-5-carboxamide formate] here?
A: > 75%

Same assay, conditions: Homo sapiens, HEK293, read-out: PMS1 IC50 (nM)

Q: `CCOc1nc(N(CC)C2CCNCC2)ncc1C(=O)Nc1cc(OC)c2nc(C)cn2c1` [Compound 260, 4-ethoxy-2-(ethyl(piperidin-4-yl)amino)-N-(8-methoxy-2-methylimidazo[1,2-a]pyridin-6-yl)pyrimidine-5-carboxamide formate] was tested. Which IC50 did it give?
A: < 500 nM

Q: For `CCOc1nc(N2CCNCC2)ncc1C(=O)Nc1cc(F)c2nc(C)cn2c1` [Compound 2, 4-ethoxy-N-{8-fluoro-2-methylimidazo[1,2-a]pyridin-6-yl}-2-(piperazin-1-yl)pyrimidine-5-carboxamide], which IC50 is on record?
A: < 500 nM

Same assay, conditions: Homo sapiens; at 5 μM; PMS1 mini-gene firefly luciferase reporter in HEK293 cells; read-out: PMS1% Effect at 5 μM

Q: With `CCOc1nc(N2CCCC2C(=O)N2CCNCC2)ncc1C(=O)Nc1cc(F)c2nc(C)cn2c1` (stereo not drawn) [Compound 196] as the compound, how does the activation at 5 µM read?
A: < 50%
